The record followed here is US20210205292A1, “INHIBITORS OF CREB-CBP INTERACTION FOR TREATMENT OF LEUKEMIA” (The Board of Trustees of the Leland Stanford Junior …, priority 2016, published 2021).

What all share (format): cell-based
Assay [1] has as its system H3K27 acetylation at CREB-bound genes. The experiment in a line: Whole-genomic H3K27 histone acetylation analysis in KG-1 cells. To be noted: 5 μM.
The test system of assay [2] is KG-1 cells. The experiment in a line: Cell cycle analysis of synchronized KG-1 cells by flow cytometry. The procedure: KG-1 cells were synchronized at prometaphase using a modified thymidine plus nocodazole block (Whitfield et al. identification of genes periodically expressed in the human cell cycle and their expression in tumors. Mol Biol Cell. 2002; 13(6):1977-2000). Briefly, KG-1 cells were treated with 2 mM thymidine for 30 h, washed with PBS and released from G1/S block in fresh media for 4 h. The cells were incubated with 300 nM nocodazole (Sigma) for 13 h. Compound A or DMSO was added 3 hours before release. The synchronized cells were washed with PBS and released from the mitotic block in fresh media containing Compound A or DMSO. To analyze DNA content by flow cytometry, cells were harvested, fixed in 70% ice-cold ethanol for at least 1 hour at −20° C., and then incubated in propidium iodide (PI) staining buffer (PBS containing RNase A (50 μg/ml), 0.1% sodium citrate, and PI ([…])) for 30 minutes at RT. Cells were analyzed on a FACS Calibur flow cytoneter (BD Biosciences). Cell-cycle distribution was determined using FlowJo software (TreeStar).
CREB regulates the cell cycle by virtue of transcriptionally regulating the expression of key cell cycle genes. Thus, the effect of Compound A on this aspect of cell function was also examined. […]
(A flow cytometer gives signals particle by particle.)

Assay [3] has as its system KG-1 cells. The experiment in a line: Viable cell count of engineered KG-1 cell lines (CREB KD, GFP, CREB OE, CBP OE). Conditions: Homo sapiens, KG-1, 48 h, 48 hours. On the procedure: AML cell lines were purchased from ATCC and maintained with IMDM (Gibco) supplemented with 10% FBS (Fisher Scientific) and 1% PSG (Gibco). Cells were plated at a density of 2-4×10^5 cells/ml, and treated with various doses of Compound A in 0.1% DMSO or 0.1% DMSO alone. Cell counts and viability were determined using the Vi-CELL XR Cell Viability Analyzer (Beckman Coulter). HL-60 and KG-1 cells overexpressing CREB or CBP were generated using lentiviral gene delivery with subsequent puromycin selection and FACs sorting for GFP. CREB knockdown was achieved by infecting cells with a lentivirus expressing the shRNA sequence 5′-[…]-3′ (SEQ ID NO:). For chemotherapy combination experiments, combination index values were calculated using median effects analysis on Calcusyn software. Human patient bone marrow samples were cultured in DMEM plus 20% FBS and 1×PSG, supplemented with recombinant GM-CSF (20 ng/ml), G-CSF (20 ng/ml), SCF (50 ng/ml), IL-3 (20 ng/ml), and IL-6 (10 ng/ml). Cells were plated at a concentration of 1×10^5 cells/ml in a 12-well plate. Vehicle (0.1% DMSO) or Compound A (2 μM) was added for up to 72 hours. All samples contained >85% AML blasts and were not sorted prior to performing experiments. Immunostaining and flow cytometry analyses were performed according to standard procedures. All antibodies were purchased from BD Biosciences. Single cell suspensions of bone marrow culture were subsequently analyzed on a D×P10 flow cytometer (Cytek). Bone marrow from AML patients were collected through voluntary patient participation at University of California, Los Angeles (Los Angeles, Calif., USA) and Stanford University (Palo Alto, Calif., USA) in compliance with the Institutional Review Board regulations of each institution.
To test the effects of CREB inhibition on AML cells, four AML cell lines were treated with doses of Compound A ranging from 100 pM to 10 μM for 48 hours. […] KG-1 cells were less sensitive to Compound A and expressed lower levels of CREB compared to HL-60 cells (FIG. 2, panel A). CREB was overexpressed to determine whether sensitivity of KG-1 cells to Compound A could be increased. KG-1 cell lines in which CREB or CBP was overexpressed, or CREB was knocked down by shRNA, were generated (FIG. 2C). A KG-1 cell line expressing only GFP was used as a control. These cell lines were treated with a range of Compound A concentrations for 48 hours (FIG. 2D). Experiments were also performed to examine the efficacy of combining Compound A with cytarabine or daunorubicin, standard drugs used in AML therapy.

A word on the IC50: it is the point on the concentration scale where inhibition reaches its midpoint. For the compound `N#Cc1ccc(NC(=O)c2cc3ccccc3cc2O)cc1` [Compound A, N-(4-cyanophenyl)-3-hydroxy-2-naphthamide], in assay [1], the “CREB-bound genes with decreased H3K27 histone acetylation” value was “Greater than 95%”. In addition, the “% cells in G1-phase” value stood at 66.20±1.83% in the assay with KG-1 cells [2] (4 hours following release) and 55.41±0.59% with KG-1 cells [2] (8 hours following release). Besides, the IC50 in the assay with KG-1 cells [3] (KG-1 CBP OE) came to 826 nM; with KG-1 cells [3] (KG-1 CREB KD) it was 1790 nM; in the assay on KG-1 cells [3] (KG-1 CREB OE) it was 687 nM; in the assay on KG-1 cells [3] (KG-1 GFP control), 1040 nM.
